System: T. cruzi intracellular amastigotes in H9c2 cells
Test: Rate-of-Kill (RoK) high-content imaging assay, amastigotes per cell (AM/CELL) and curve descriptors
Format: cell-based, Trypanosoma cruzi
Parameters: key to ME_24h / ME_48h / ME_72h: % reduction in parasite burden (cidal response); t50pct_MCC50 / t50pct_Cmax: unit not given here
Settings: for ME_24h: 24h; for ME_48h: 48h; for ME_72h: 72h; for tlag_Cmax / t50pct_Cmax / t50%_Cmax: at Cmax; for ME_24h (%): maximum effect at 24 h; for ME_24h (%) / ME_48h (%) / ME_72h (%): RoK assay; for ME_48h (%): maximum effect at 48 h; for ME_72h (%): maximum effect at 72 h
Summary of the method: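 H9c2 cardiomyocytes infected with T. cruzi trypomastigotes (MOI 8, 18 h), then compounds tested at 5 μM single shot or 11-point 1/3 dilution from 50 μM. DRAQ5-stained nuclei imaged over a time course. Amastigotes per cell normalised to infected cells at 4 h (0%) and non-infected cells (100%).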

[1] = maximum percentage of parasite burden reduction reached by any concentration, 24 hours

SMILES: CC(C)Nc1nccc(-c2c(-c3ccc(F)cc3)ncn2C2CCOCC2)n1 [TCMDC-143379]
- ME_24h (figure 5): -22.482
- ME_48h (figure 5): -3.3846
- ME_72h (figure 5): 36.7081
- MCCE (RoK curve descriptor): 0.2 µM
- AM/CELL NORM (Time 4, sheet figure 4 A): -6.859
- AM/CELL NORM (Time 24, sheet figure 4 A): -37.6965
- AM/CELL NORM (Time 48, sheet figure 4 A): -3.3846
- AM/CELL NORM (Time 72, sheet figure 4 A): 36.7081
- tlag_Cmax: 24.0 h
- t50pct_Cmax (figure 5): 72
- tlag_Cmax (figure 5): 24
- t50pct_MCC50 (at MCC50, figure 5): 72
- tlag_MCC50 (at MCC50, figure 5): 72
- MCC50 (figure 5): 50 µM
- MCCE (figure 5): 0.2058
- ME_24h (%): -22.5%
- ME_48h (%): -3.4%
- ME_72h (%): 36.7%
- ME 24h (maximum effect at 24 hours, intracellular amastigotes) [1]: -22.482%

SMILES: CN(Cc1ccc(C(N)=O)cc1)C(c1ccc(F)cc1)c1cccnc1 (stereo not drawn) [TCMDC-143504]
- ME_24h (figure 5): -95.1621
- ME_48h (figure 5): -135.708
- ME_72h (figure 5): 0.6882
- MCCE (RoK curve descriptor): 0.6 µM
- AM/CELL NORM (Time 4, sheet figure 4 A): 2.577
- AM/CELL NORM (Time 24, sheet figure 4 A): -143.385
- AM/CELL NORM (Time 48, sheet figure 4 A): -163.001
- AM/CELL NORM (Time 72, sheet figure 4 A): -44.3312
- t50pct_Cmax (figure 5): 72
- tlag_Cmax (figure 5): 48
- t50pct_MCC50 (at MCC50, figure 5): 72
- tlag_MCC50 (at MCC50, figure 5): 72
- MCC50 (figure 5): 50 µM
- MCCE (figure 5): 0.6173
- ME_24h (%): -95.2%
- ME_48h (%): -135.7%
- ME_72h (%): 0.7%
- ME 24h (maximum effect at 24 hours, intracellular amastigotes) [1]: -95.1621%

SMILES: CCn1nccc1CN(C)C(=O)C=Cc1ccc(Cl)cc1 [TCMDC-143325]
- ME_24h (figure 5): -25.9716
- ME_48h (figure 5): -135.889
- ME_72h (figure 5): 23.6762
- MCCE (RoK curve descriptor): 0.6 µM
- AM/CELL NORM (Time 4, sheet figure 4 A): 13.1334
- AM/CELL NORM (Time 24, sheet figure 4 A): -25.9716
- AM/CELL NORM (Time 48, sheet figure 4 A): -135.889
- AM/CELL NORM (Time 72, sheet figure 4 A): 23.6762
- tlag_Cmax: 48.0 h
- t50pct_Cmax (figure 5): 72
- tlag_Cmax (figure 5): 48
- t50pct_MCC50 (at MCC50, figure 5): 72
- tlag_MCC50 (at MCC50, figure 5): 72
- MCC50 (figure 5): 50 µM
- MCCE (figure 5): 0.6173
- ME_24h (%): -26.0%
- ME_48h (%): -135.9%
- ME_72h (%): 23.7%
- ME 24h (maximum effect at 24 hours, intracellular amastigotes) [1]: -25.9716%

SMILES: CC(=O)Nc1ccc(-c2noc(CC3CCCN(Cc4cccc(F)c4C)C3)n2)cc1 (stereo not drawn) [TCMDC-143362]
- ME_24h (figure 5): 28.3063
- ME_48h (figure 5): 60.2253
- ME_72h (figure 5): 68.1396
- MCC50 (RoK curve descriptor): 5.6 µM
- MCCE (RoK curve descriptor): 1.9 µM
- AM/CELL NORM (Time 4, figure 4 A): -3.298
- AM/CELL NORM (Time 24, figure 4 A): 28.3063
- AM/CELL NORM (Time 48, figure 4 A): 60.2253
- AM/CELL NORM (Time 72, figure 4 A): 68.1396
- t50%_Cmax: 48.0 h
- tlag_Cmax: 4.0 h
- t50pct_Cmax (figure 5): 48
- tlag_Cmax (figure 5): 4
- t50%_MCC50 (at MCC50): 72.0 h
- tlag_MCC50 (at MCC50): 24.0 h
- t50pct_MCC50 (at MCC50, figure 5): 72
- tlag_MCC50 (at MCC50, figure 5): 24
- MCCE (figure 5): 1.852
- MCC50 (figure 5, in µM): 5.556
- ME_24h (%): 28.3%
- ME_48h (%): 60.2%
- ME_72h (%): 68.1%
- ME 24h (maximum effect at 24 hours, intracellular amastigotes) [1]: 73.518%

SMILES: O=C(CN(c1cccc(C(F)(F)F)c1)S(=O)(=O)c1ccc(Cl)cc1)NCc1ccc(F)c(F)c1 [TCMDC-143548]
- ME_24h (figure 5): -13.6646
- ME_48h (figure 5): 17.5808
- ME_72h (figure 5): 36.7488
- MCCE (RoK curve descriptor): 0.6 µM
- AM/CELL NORM (Time 4, sheet figure 4 A): 27.6101
- AM/CELL NORM (Time 24, sheet figure 4 A): -54.8458
- AM/CELL NORM (Time 48, sheet figure 4 A): -14.5763
- AM/CELL NORM (Time 72, sheet figure 4 A): 13.9259
- tlag_Cmax: 24.0 h
- t50pct_Cmax (figure 5): 72
- tlag_Cmax (figure 5): 24
- t50pct_MCC50 (at MCC50, figure 5): 72
- tlag_MCC50 (at MCC50, figure 5): 72
- MCC50 (figure 5): 50 µM
- MCCE (figure 5): 0.6173
- ME_24h (%): -13.7%
- ME_48h (%): 17.6%
- ME_72h (%): 36.8%
- ME 24h (maximum effect at 24 hours, intracellular amastigotes) [1]: -13.6646%

SMILES: Cc1cc(N(C)C)nc(Nc2ccccc2C)n1 [TCMDC-143109]
- ME_24h (figure 5): 47.5747
- ME_48h (figure 5): 78.0835
- ME_72h (figure 5): 82.1728
- MCC50 (RoK curve descriptor): 5.6 µM
- MCCE (RoK curve descriptor): 1.9 µM
- AM/CELL NORM (Time 4, sheet figure 4 A): 2.321
- AM/CELL NORM (Time 24, sheet figure 4 A): 36.6087
- AM/CELL NORM (Time 48, sheet figure 4 A): 78.0835
- AM/CELL NORM (Time 72, sheet figure 4 A): 76.3621
- t50%_Cmax: 48.0 h
- tlag_Cmax: 4.0 h
- t50pct_Cmax (figure 5): 48
- tlag_Cmax (figure 5): 4
- t50%_MCC50 (at MCC50): 48.0 h
- tlag_MCC50 (at MCC50): 4.0 h
- t50pct_MCC50 (at MCC50, figure 5): 48
- tlag_MCC50 (at MCC50, figure 5): 4
- MCCE (figure 5): 1.852
- MCC50 (figure 5, in µM): 5.556
- ME_24h (%): 47.6%
- ME_48h (%): 78.1%
- ME_72h (%): 82.2%
- ME 24h (maximum effect at 24 hours, intracellular amastigotes) [1]: 47.5747%

SMILES: CC1CS(=O)(=O)CCN1/N=C/c1ccc([N+](=O)[O-])o1 (stereo not drawn) [Nifurtimox, nifurtimox, reference compound]
- ME (maximum effect) in RoK assay (in words): higher ME values close to 100%
- tlag (in words): short t-lag values
- ME_24h (figure 5): 79.7791
- ME_48h (figure 5): 100.284
- ME_72h (figure 5): 96.6694
- t50pct_Cmax (t50%_Cmax) (Fig 2C, average, time to reduce 50% of initial parasite load at maximum concentration): 24 h
- MCC50 (RoK curve descriptor): 7.5 µM
- MCCE (RoK curve descriptor): 1.9 µM
- AM/CELL NORM (Time 4, figure 4 A): -6.175
- AM/CELL NORM (Time 24, figure 4 A): 78.541
- AM/CELL NORM (Time 48, figure 4 A): 98.3875
- AM/CELL NORM (Time 72, figure 4 A): 101.766
- Emax (Trypanosoma cruzi, H9c2, maximum percentage of parasite burden reduction reached by any concentration, 24 hours, read-out: ME 24h (maximum effect at 24 hours, intracellular amastigotes)): 81.7%
- t50%_Cmax: 24.0 h
- tlag_Cmax: 4.0 h
- t50pct_Cmax (figure 5): 25.3333
- tlag_Cmax (figure 5): 4
- t50%_MCC50 (at MCC50): 48.2 h
- tlag_MCC50 (at MCC50): 8.9 h
- t50pct_MCC50 (at MCC50, figure 5): 48.2222
- tlag_MCC50 (at MCC50, figure 5): 8.889
- MCCE (figure 5): 1.852
- MCC50 (figure 5, in µM): 7.545
- ME_24h (%): 79.8%
- ME_48h (%): 100.3%
- ME_72h (%): 96.7%

SMILES: O=C(CSc1ccc(F)cc1)N[C@@H](Cc1cnc[nH]1)C(=O)NCCc1ccccc1.O=C(O)C(F)(F)F [TCMDC-143317]
- ME_24h (figure 5): -217.337
- ME_48h (figure 5): -137.825
- ME_72h (figure 5): 44.5659
- MCC50 (RoK curve descriptor): 50.0 µM
- MCCE (RoK curve descriptor): 1.2 µM
- AM/CELL NORM (Time 4, sheet figure 4 A): -0.3431
- AM/CELL NORM (Time 24, sheet figure 4 A): -195.022
- AM/CELL NORM (Time 48, sheet figure 4 A): -169.506
- AM/CELL NORM (Time 72, sheet figure 4 A): 59.3586
- t50%_Cmax: 72.0 h
- tlag_Cmax: 24.0 h
- t50pct_Cmax (figure 5): 72
- tlag_Cmax (figure 5): 24
- t50%_MCC50 (at MCC50): 72.0 h
- tlag_MCC50 (at MCC50): 24.0 h
- t50pct_MCC50 (at MCC50, figure 5): 72
- tlag_MCC50 (at MCC50, figure 5): 48
- MCC50 (figure 5): 50 µM
- MCCE (figure 5): 1.235
- ME_24h (%): -217.3%
- ME_48h (%): -137.8%
- ME_72h (%): 44.6%
- ME 24h (maximum effect at 24 hours, intracellular amastigotes) [1]: -157.067%

SMILES: OCCCNc1nc(Nc2ccncc2)nc2ccccc12 [TCMDC-143476]
- ME_24h (figure 5): -15.4195
- ME_48h (figure 5): -2.754
- ME_72h (figure 5): -23.113
- MCCE (RoK curve descriptor): 0.6 µM
- AM/CELL NORM (Time 4, sheet figure 4 A): -9.731
- AM/CELL NORM (Time 24, sheet figure 4 A): -26.5514
- AM/CELL NORM (Time 48, sheet figure 4 A): -22.3232
- AM/CELL NORM (Time 72, sheet figure 4 A): -41.9873
- tlag_Cmax: 24.0 h
- t50pct_Cmax (figure 5): 72
- tlag_Cmax (figure 5): 24
- t50pct_MCC50 (at MCC50, figure 5): 72
- tlag_MCC50 (at MCC50, figure 5): 72
- MCC50 (figure 5): 50 µM
- MCCE (figure 5): 0.6173
- ME_24h (%): -15.4%
- ME_48h (%): -2.8%
- ME_72h (%): -23.1%
- ME 24h (maximum effect at 24 hours, intracellular amastigotes) [1]: -15.4195%

Reference: paper PMC8318231, “Rate-of-Kill (RoK) assays to triage large compound sets for Chagas disease drug discovery: Application to GSK Chagas Box” (PLoS Neglected Tropical Diseases, 2021)
